Test results published in patent US12419824B2, “Compounds useful for the treatment and/or care of the skin, hair, nails and/or mucous membranes” (Lubrizol Advanced Materials, Inc., priority 2019, dated 2025).

system: Muscle bind like protein 1 (MBNL1); test: MBNL1 quantification by TR-FRET in hSkMc from TEBU-BIO (Example 20); type: cell-based, human; details: 0.5 mg/ml, versus basal control
Method: (§1) hSkMc (Innoprot) are seeded in 12-well plates at a density of 1.5×10^4 cells/well in Skeletal Muscle Cell Growth Medium (Promocell). After 72 hours incubation, medium is removed and replaced with Skeletal Muscle Cell Differentiation Medium (Promocell). 48 hours after beginning cell differentiation, fresh differentiation medium with 0.5 mg/ml of test items is added. Treatment is continued for 48 hours and non-treated cells are used as basal control. After 48 hours of treatment, cell medium is removed and added cell lysis buffer to wells. Immediately, plates are kept at −80° C. in order to improve protein extraction during the defrosting process. After 72 hours, cells are lysated by shaking the plates in an orbital rotor at room temperature for 45 minutes. Next, cell lysates are collected and assayed to quantify the level of MBNL1 protein and total protein concentration.
(§2) MBNL1 protein levels measurement is performed with Human MBNL1 Assay Kit (Cisbio) according to the manufacturer's protocol. Briefly, the kit is used to perform a TR-FRET for MBNL1 quantification. The protein is detected with the antibodies provided in the kit and quantified by a fluorescence measurement. The quantification is carried out by using a microplate reader (ClarioStar, BMG) set to 665 nm and 620 nm.
(§3) Total protein concentration of cell lysate is determined by using Pierce BCA Protein Assay Kit™ (Thermo Scientific) according to manufacturer's protocol. In brief, after adding Working Reagent to the samples and the standards, the samples are incubated. Afterwards, color change is measured with an absorbance microplate reader (Clariostar™, BMG) at 562 nm. The total protein amount is used to normalize the level of MBNL1 protein concentration obtained by the TR-FRET test in the samples.
The assay is performed as disclosed in Example 7 except that hSkMc from TEBU-BIO (Barcelona, Spain) are used. Different peptides of the invention are tested at a concentration of 0.5 mg/ml.

Question: For “Ac-Ala-Leu-Lys-Pro-Asn-Thr-OH (Ac-ALKPNT-OH) [PEP27]”, which “% MBNL1” value is on record?
Answer: 126.1%

Question: For “H-Ala-Ile-Arg-Pro-Asn-Thr-NH2 (H-AIRPNT-NH2) [PEP44]”, which “% MBNL1” value is on record?
Answer: 240.6%

Question: For “H-Ala-Leu-Arg-Pro-Asn-Thr-NH2 (H-ALRPNT-NH2) [PEP30]”, which “% MBNL1” value is on record?
Answer: 181.3%

Question: “H-Ala-Leu-Lys-Pro-Asn-NH2 (H-ALKPN-NH2) [PEP41]” was tested. Which “% MBNL1” value did it give?
Answer: 138.4%

Question: “H-Ala-Leu-Lys-Pro-Gln-Thr-NH2 (H-ALKPQT-NH2) [PEP50]” was tested. Which “% MBNL1” value did it give?
Answer: 119.4%

Question: Which “% MBNL1” value does the source give for “H-Ala-Leu-Lys-Val-Asn-Thr-NH2 (H-ALKVNT-NH2) [PEP31]” here?
Answer: 120.0%

Question: For “H-Gly-Ile-Lys-Pro-Asn-Thr-NH2 (H-GIKPNT-NH2) [PEP42]”, which “% MBNL1” value is on record?
Answer: 114.2%

Question: With “H-Gly-Val-Arg-Pro-Asn-Thr-NH2 (H-GVRPNT-NH2) [PEP46]” as the substance, how does the “% MBNL1” value read?
Answer: 182.1%

Question: For “H-Leu-Lys-Pro-Asn-Thr-NH2 (H-LKPNT-NH2) [PEP40]”, which “% MBNL1” value is on record?
Answer: 117.3%

system: Muscle bind like protein 1 (MBNL1); test: MBNL1 quantification in human skeletal muscle cells by TR-FRET (Examples 7, 19); type: cell-based; details: hSkMc, 0.5 mg/mL, as Example 7, versus basal control
Method: MBNL1 induction by the peptides of the invention is evaluated by a Time resolved fluorescence resonance energy transfer (TR-FRET) assay. The aim of this study is to investigate the capacity of peptide candidates to increase MBNL1 in human skeletal muscle cells (hSkMc).
as §1, §2, §3
Different peptides of the invention are tested as disclosed in Example 7 at 0.5 mg/mL.

Question: With “Ac-Ala-Asp-Val-Tyr-Lys-NH2 (Ac-ADVYK-NH2) [PEP14]” as the substance, how does the “% MBNL1” value read?
Answer: 145.0%

Question: With “Ac-Asn-Val-Tyr-Lys-NH2 (Ac-NVYK-NH2) [PEP11]” as the substance, how does the “% MBNL1” value read?
Answer: 145.2%

Question: How did the “% MBNL1” value turn out when “Ac-Asp-Ile-Tyr-Lys-NH2 (Ac-DIYK-NH2) [PEP8]” was run?
Answer: 190.4%

Question: Which “% MBNL1” value does the source give for “Ac-Asp-Leu-Tyr-Lys-NH2 (Ac-DLYK-NH2) [PEP12]” here?
Answer: 154.4%

Question: How did the “% MBNL1” value turn out when “Ac-Asp-Val-Phe-Lys-NH2 (Ac-DVFK-NH2) [PEP9]” was run?
Answer: 134.2%

Question: How did the “% MBNL1” value turn out when “Ac-Asp-Val-Tyr-Arg-NH2 (Ac-DVYR-NH2) [PEP10]” was run?
Answer: 158.3%

Question: With “Ac-Asp-Val-Tyr-Lys-Ala-NH2 (Ac-DVYKA-NH2) [PEP15]” as the substance, how does the “% MBNL1” value read?
Answer: 145.2%

Question: For “Ac-Asp-Val-Tyr-Lys-OH (Ac-DVYK-OH) [PEP4]”, which “% MBNL1” value is on record?
Answer: 378.5%

Question: For “Ac-Glu-Ile-Phe-Arg-NH2 (Ac-EIFR-NH2) [PEP24]”, which “% MBNL1” value is on record?
Answer: 117.5%

Question: Which “% MBNL1” value does the source give for “Ac-Glu-Ile-Tyr-Arg-NH2 (Ac-EIYR-NH2) [PEP23]” here?
Answer: 181.4%

Question: Which “% MBNL1” value does the source give for “Ac-Glu-Ile-Tyr-Lys-NH2 (Ac-EIYK-NH2) [PEP20]” here?
Answer: 214.2%

Question: Which “% MBNL1” value does the source give for “Ac-Glu-Val-Tyr-Lys-NH2 (Ac-EVYK-NH2) [PEP7]” here?
Answer: 141.5%

Question: For “H-Asp-Val-Tyr-Lys-NH2 (H-DVYK-NH2) [PEP5]”, which “% MBNL1” value is on record?
Answer: 261.4%

Question: For “Palm-Asp-Val-Tyr-Lys-NH2 (DVYK; HELM PEPTIDE1{[CCCCCCCCCCCCCCCC(=O)[*:2]].D.V.Y.K.[am]}$$$$V2.0; SMILES CCCCCCCCCCCCCCCC(=O)N[C@@H](CC(=O)O)C(=O)N[C@H](C(=O)N[C@@H](Cc1ccc(O)cc1)C(=O)N[C@@H](CCCCN)C(N)=O)C(C)C) [PEP3]”, which “% MBNL1” value is on record?
Answer: 127.7%

Question: Which “% MBNL1” value does the source give for “Palm-Glu-Val-Tyr-Lys-NH2 (EVYK; HELM PEPTIDE1{[CCCCCCCCCCCCCCCC(=O)[*:2]].E.V.Y.K.[am]}$$$$V2.0; SMILES CCCCCCCCCCCCCCCC(=O)N[C@@H](CCC(=O)O)C(=O)N[C@H](C(=O)N[C@@H](Cc1ccc(O)cc1)C(=O)N[C@@H](CCCCN)C(N)=O)C(C)C) [PEP13]” here?
Answer: 147.2%
